Data reported in patent US8092816B2, “Insecticidal compositions for control of general household pests” (priority 2004, dated 2012).
Where two headings read alike, the source gives them in different places.

Assays:
[1] = test system: Oriental cockroach; experiment: Example 4: Oriental cockroach knockdown and mortality, bifenthrin and imidacloprid; type: in vivo
Description: (§1) The following examples further illustrate the present invention, but, of course, should not be construed as in any way limiting its scope. The examples set forth certain biological data illustrating the efficacy of the compositions of the present invention in controlling general household pests. Each example embodies a separate test wherein the pests were randomly selected from a population at a random age. As a result, from example to example, the ages of the pests can be very different. This age difference potentially translates to different baselines for each example. Therefore, data should only be compared within the example and not from example to example due to the differences in age of the pests from example to example. Unless otherwise indicated, all parts, percentages, and the like are by weight. The spray chamber used in the examples was approximately 76 inches tall, 73 inches long and 31 inches deep with an adjustable shelf (approximately 22 inches deep) and a movable spray nozzle. The spray chambers were calibrated to deliver a volume of approximately 1 gallon of liquid per 1000 square feet of area at about 14 pounds per square inch of pressure. A DeVilbiss hand held sprayer (Atomizer model 152) manufactured by DeVilbiss located in Glendale Heights, Ill. was used in testing house flies and mosquitoes. The DeVilbiss was used to apply approximately 3-5 milliliters of product at about 10 pounds per square inch.
(§2) The compositions of the present invention were tested for Oriental cockroach activity in the following manner:
(§3) Test compositions made up of TALSTARONE® MULTI-INSECTICIDE and a wettable powder of imidacloprid (MERIT) in distilled water were prepared that provided appropriate rates of application of combinations of bifenthrin and imidacloprid, as well as bifenthrin and imidacloprid alone.
(§4) The spray chamber was then calibrated to deliver the treatment solution at the desired volume and pressure over the desired area on the chamber shelf. Spray chamber shelf height was adjusted to approximately 18 inches from the spray tip. The shelf was then covered with aluminum foil and the center of the shelf from front-to-back and end-to-end was determined. A desired number of 4.0″ sieve circles were marked on the aluminum foil with a permanent marker. The inside of a desired number of PVC rings were coated with a petroleum jelly/mineral oil mixture (1:2 ratio). The PVC rings were place on the sieve circles. 10 male Oriental cockroaches were placed inside each PVC ring. The sprayer was activated and the test compound was applied to each PVC ring interior. Oriental cockroach knockdown and mortality were measured.

[2] = test system: German cockroach; experiment: Example 13: German cockroach mortality, bifenthrin and clothianidin; type: in vivo
Description: as §1
The compositions of the present invention were tested for German cockroach activity in the following manner:
(§5) Test compositions made up of TALSTARONE® MULTI-INSECTICIDE and a 16% a.i. water dispersible granular of clothianidin in distilled water were prepared that provided appropriate rates of application of combinations of bifenthrin and clothianidin, as well as bifenthrin and clothianidin alone.
as §4, with “male German” for “male Oriental”, “interior. German” for “interior. Oriental”, “cockroach” for “cockroach knockdown and”, “mortality was” for “mortality were”

[3] = test system: Yellow Fever Mosquito; type: in vivo
Description: as §1
The compositions of the present invention were tested for Yellow Fever Mosquito activity in the following manner:
as §5
A DeVilbiss hand held sprayer was used to deliver the treatment solution at the desired volume and pressure. The Yellow Fever Mosquitoes to be treated were collected and placed in screened 16 oz paper cups. The hand held sprayer was activated and the test compound was applied to each paper cup interior. Yellow Fever Mosquito knockdown and mortality were measured.

[4] = test system: Oriental cockroach; experiment: Example 15: Oriental cockroach knockdown and mortality, bifenthrin and clothianidin; type: in vivo
Description: as §1, §2, §5, §4

[5] = test system: Red Imported Fire Ant; experiment: Example 5: red imported fire ant knockdown and mortality, bifenthrin and imidacloprid; type: in vivo, Solenopsis invicta
Description: as §1
The compositions of the present invention were tested for red imported fire ant activity in the following manner:
as §3
The spray chamber was then calibrated to deliver the treatment solution at the desired volume and pressure over the desired area on the chamber shelf. Spray chamber shelf height was adjusted to approximately 18 inches from the spray tip. The shelf was then covered with aluminum foil and the center of the shelf from front-to-back and end-to-end was determined. The red imported fire ants to be treated were collected and placed in screened 16 oz paper cups. The paper cups were placed onto the aluminum foil on the spray chamber shelf. The sprayer was activated and the test compound was applied to each paper cup interior. Red imported fire ant knockdown and mortality were measured.

[6] = rate of appln. 10 PPM (0.001% by weight)
[7] = rate of appln. 50 PPM (0.005% by weight)

## Cc1c(COC(=O)[C@@H]2[C@H](/C=C(\Cl)C(F)(F)F)C2(C)C)cccc1-c1ccccc1 (racemic) [A, 2-methylbiphenyl-3-ylmethyl (Z)-(1RS)-cis-3-(2-chloro-3,3,3-trifluoroprop-1-enyl)-2,2-dimethylcyclopropanecarboxylate]
[1]; 10 PPM, 0.001% by weight
  Knockdown Rate @ 15 minute: 0%
  Knockdown Rate @ 30 minute: 0%
  Mortality Rate @ 60 minute: 0%
  Mortality Rate @ 120 minute: 0%
  Mortality Rate @ 4 hours: 0%
  Mortality Rate @ 1 day: 15%
  Mortality Rate @ 2 days: 15%
[1]; 50 PPM, 0.005% by weight
  Knockdown Rate @ 15 minute: 0%
  Knockdown Rate @ 30 minute: 0%
  Mortality Rate @ 60 minute: 5%
  Mortality Rate @ 120 minute: 5%
  Mortality Rate @ 4 hours: 30%
  Mortality Rate @ 1 day: 70%
  Mortality Rate @ 2 days: 70%
[2]; [6]
  Mortality Rate @ 60 minutes: 8%
  Mortality Rate @ 120 minutes: 33%
  Mortality Rate @ 1 day: 35%
  Mortality Rate @ 2 days: 60%
  Mortality Rate @ 4 days: 100%
[2]; [7]
  Mortality Rate @ 60 minutes: 15%
  Mortality Rate @ 120 minutes: 48%
  Mortality Rate @ 1 day: 58%
  Mortality Rate @ 2 days: 100%
  Mortality Rate @ 4 days: 100%
[3]; [6]
  Knockdown Rate @ 15 minute: 27%
  Knockdown Rate @ 30 minute: 97%
  Mortality Rate @ 45 minutes: 100%
  Mortality Rate @ 60 minutes: 100%
  Mortality Rate @ 120 minutes: 100%
  Mortality Rate @ 180 minute: 100%
  Mortality Rate @ 4 hours: 100%
  Mortality Rate @ 1 day: 100%
[3]; [7]
  Knockdown Rate @ 15 minute: 90%
  Knockdown Rate @ 30 minute: 100%
  Mortality Rate @ 45 minutes: 100%
  Mortality Rate @ 60 minutes: 100%
  Mortality Rate @ 120 minutes: 100%
  Mortality Rate @ 180 minute: 100%
  Mortality Rate @ 4 hours: 100%
  Mortality Rate @ 1 day: 100%
[4]; [6]
  Knockdown Rate @ 10 minute: 0%
  Knockdown Rate @ 15 minute: 0%
  Knockdown Rate @ 30 minute: 0%
  Mortality Rate @ 60 minute: 0%
  Mortality Rate @ 120 minute: 0%
  Mortality Rate @ 4 hours: 0%
  Mortality Rate @ 1 day: 0%
  Mortality Rate @ 2 days: 3%
[4]; [7]
  Knockdown Rate @ 10 minute: 0%
  Knockdown Rate @ 15 minute: 0%
  Knockdown Rate @ 30 minute: 0%
  Mortality Rate @ 60 minute: 0%
  Mortality Rate @ 120 minute: 0%
  Mortality Rate @ 4 hours: 10%
  Mortality Rate @ 1 day: 20%
  Mortality Rate @ 2 days: 23%
[5]; 10 PPM, 0.001% by weight
  Knockdown Rate @ 5 minute: 30%
  Knockdown Rate @ 10 minute: 93%
  Knockdown Rate @ 15 minute: 95%
  Knockdown Rate @ 30 minutes: 100%
  Mortality Rate @ 60 minutes: 65%
  Mortality Rate @ 120 minutes: 100%
  Mortality Rate @ 4 hours: 100%
  Mortality Rate @ 1 day: 100%
[5]; 50 PPM, 0.005% by weight
  Knockdown Rate @ 5 minute: 10%
  Knockdown Rate @ 10 minute: 70%
  Knockdown Rate @ 15 minute: 95%
  Knockdown Rate @ 30 minutes: 100%
  Mortality Rate @ 60 minutes: 100%
  Mortality Rate @ 120 minutes: 100%
  Mortality Rate @ 4 hours: 100%
  Mortality Rate @ 1 day: 100%
